Source: patent US8871774B2, “Inhibitors of influenza viruses replication” (priority 2010, dated 2014)
Like-named read-outs stand apart in the source and are kept apart here.

Legend:
[1] = test system: Influenza virus, strain A/PR/8/34; assay: microbe, parasite or virus in culture; assay type: cell-based; conditions: unidentified influenza virus, PR/8, read-out: bDNA EC50 (uM)
[2] = test system: influenza A virus (A/PR/8/34); assay: cytopathic effect (CPE) assay, MDCK cell protection by ATP detection; assay type: cell-based; conditions: Influenza A virus, mean IC50, MDCK cells, A/PR/8/34, 72 hours, 50% cell protection
[3] = Table 1, read-out: Flu, MDCK IC50
[4] = Table 2, read-out: Flu MDCK IC50

Q: For `COC(=O)[C@H]1C2CCC(CC2)[C@@H]1Nc1nc(-c2n[nH]c3ncc(Cl)cc23)ncc1F` (racemic) [Compound I-2, (+/−)-trans-(2,3)-methyl 3-((2-(5-chloro-1H-pyrazolo[3,4-b]pyridin-3-yl)-5-fluoropyrimidin-4-yl)amino)bicyclo[2.2.2]octane-2-carboxylate], which EC50 [1] is on record?
A: Its EC50 is under 3.3 µM.

Q: And the IC50 [2, 3]?
A: The IC50 was under 3.3 µM.

Q: Which EC50 [1] does the source give for `O=C(O)[C@H]1C2CCC(CC2)[C@@H]1Nc1nc(-c2n[nH]c3ncc(Cl)cc23)ncc1F` (racemic) [Compound I-6, (+/−) trans-(2S,3S)-3-((2-(5-chloro-1H-pyrazolo[3,4-b]pyridin-3-yl)-5-fluoropyrimidin-4-yl)amino)bicyclo[2.2.2]octane-2-carboxylic acid] here?
A: The EC50 was under 3.3 µM.

Q: And the IC50 [2, 3]?
A: The IC50 was under 3.3 µM.

Q: Which results are given for `O=C(O)[C@H]1C2CCC(CC2)[C@@H]1Nc1nc(-c2n[nH]c3ncccc23)ncc1F` (racemic) [Compound I-11, (+/−)-trans-3-((5-fluoro-2-(1H-pyrazolo[3,4-b]pyridin-3-yl)pyrimidin-4-yl)amino)bicyclo-[2.2.2]octane-2-carboxylic acid]?
A: EC50 [1]: < 3.3 µM; IC50 [2, 3]: < 3.3 µM

Q: With `C[C@]1(C(=O)O)CCCC[C@@H]1Nc1nc(-c2n[nH]c3ncc(Cl)cc23)ncc1F` (racemic) [Compound I-13, (+/−)-2-((2-(5-chloro-1H-pyrazolo[3,4-b]pyridin-3-yl)-5-fluoropyrimidin-4-yl)amino)-1-methylcyclohexanecarboxylic acid] as the compound, how does the EC50 [1] read?
A: The EC50 was under 3.3 µM.

Q: What about the IC50 [2, 3] of the same compound?
A: The IC50 was under 3.3 µM.

Q: `COC(=O)[C@H]1C2CCC(CC2)[C@@H]1Nc1nc(-c2n[nH]c3ncc(F)cc23)ncc1F` (racemic) [Compound I-28, (+/−) trans-methyl 3-(5-fluoro-2-(5-fluoro-1H-pyrazolo[3,4-b]pyridin-3-yl)pyrimidin-4-ylamino)bicyclo[2.2.2]octane-2-carboxylate] was tested. Which EC50 [1] did it give?
A: Its EC50 is under 3.3 µM.

Q: And the IC50 [2, 3]?
A: Its IC50 is under 3.3 µM.

Q: What does the source list for `COC(=O)[C@H]1C2CCC(CC2)[C@@H]1Nc1nc(-c2n[nH]c3ncc(F)cc23)ncc1Cl` (racemic) [Compound I-32, (+/−)-trans-(2,3)-methyl 3-((5-chloro-2-(5-fluoro-1H-pyrazolo[3,4-b]pyridin-3-yl)pyrimidin-4-yl)amino)bicyclo[2.2.2]octane-2-carboxylate]?
A: EC50 [1]: < 3.3 µM; IC50 [2, 3]: < 3.3 µM

Q: `O=C(O)[C@H]1C2CCC(CC2)[C@@H]1Nc1nc(-c2n[nH]c3ncc(F)cc23)ncc1Cl` (racemic) [Compound I-33, (+/−)-trans-(2,3)-3-((5-chloro-2-(5-fluoro-1H-pyrazolo[3,4-b]pyridin-3-yl)pyrimidin-4-yl)amino)bicyclo[2.2.2]octane-2-carboxylic acid] was tested. Which EC50 [1] did it give?
A: The EC50 was under 3.3 µM.

Q: What about the IC50 [2, 3] of the same compound?
A: Its IC50 is under 3.3 µM.

Q: How did the EC50 [1] turn out when `COC(=O)[C@H]1C2CCCC(CC2)[C@@H]1Nc1nc(-c2n[nH]c3ncc(F)cc23)ncc1F` (mixture of isomers) [Compound I-36, (+/−)-methyl 7-(5-fluoro-2-(5-fluoro-1H-pyrazolo[3,4-b]pyridin-3-yl)pyrimidin-4-ylamino)bicyclo[3.2.2]nonane-6-carboxylate] was run?
A: Its EC50 is under 3.3 µM.

Q: What about the IC50 [2, 3] of the same compound?
A: The IC50 was under 3.3 µM.

Q: How did the EC50 [1] turn out when `O=C(O)[C@H]1C2CCCC(CC2)[C@@H]1Nc1nc(-c2n[nH]c3ncc(F)cc23)ncc1F` (mixture of isomers) [Compound I-37, (+/−)-7-(5-fluoro-2-(5-fluoro-1H-pyrazolo[3,4-b]pyridin-3-yl)pyrimidin-4-ylamino)bicyclo[3.2.2]nonane-6-carboxylic acid] was run?
A: Its EC50 is under 3.3 µM.

Q: And the IC50 [2, 3]?
A: Its IC50 is under 3.3 µM.

Q: What does the source list for `COC(=O)[C@H]1C2CCC(CC2)C1Nc1ccnc(-c2n[nH]c3ncc(F)cc23)n1` (mixture of isomers) [Compound I-42, (+/−)-trans-methyl-3-((2-(5-fluoro-1H-pyrazolo[3,4-b]pyridin-3-yl)pyrimidin-4-yl)amino)bicyclo[2.2.2]octane-2-carboxylate]?
A: EC50 [1]: < 3.3 µM; IC50 [2, 4]: < 3.3 µM

Q: What does the source list for `O=C(O)[C@H]1C2CCC(CC2)C1Nc1ccnc(-c2n[nH]c3ncc(F)cc23)n1` (mixture of isomers) [Compound I-43, (+/−)-trans-3-((2-(5-fluoro-1H-pyrazolo[3,4-b]pyridin-3-yl)pyrimidin-4-yl)amino)bicyclo[2.2.2]octane-2-carboxylic acid]?
A: EC50 [1]: < 3.3 µM; IC50 [2, 4]: < 3.3 µM

Q: Which results are given for `O=C(N[C@@H]1CCC[C@H](Nc2nc(-c3n[nH]c4ncc(Cl)cc34)ncc2F)C1)N1CCOCC1` [Compound I-1, N-((1R,3S)-3-((2-(5-chloro-1H-pyrazolo[3,4-b]pyridin-3-yl)-5-fluoropyrimidin-4-yl)amino)cyclohexyl)morpholine-4-carboxamide]?
A: EC50 [1]: < 3.3 µM; IC50 [2, 3]: < 3.3 µM

Q: How did the EC50 [1] turn out when `O=C(N[C@@H]1CCC[C@H](Nc2nc(-c3n[nH]c4ncc(Cl)cc34)ncc2F)C1)N1CCCC1` [Compound I-3, N-((1R,3S)-3-((2-(5-chloro-1H-pyrazolo[3,4-b]pyridin-3-yl)-5-fluoropyrimidin-4-yl)amino)cyclohexyl)pyrrolidine-1-carboxamide] was run?
A: The EC50 was under 3.3 µM.

Q: What about the IC50 [2, 3] of the same compound?
A: Its IC50 is under 3.3 µM.

Q: `O=C(N[C@@H]1CCC[C@H](Nc2nc(-c3n[nH]c4ncc(Cl)cc34)ncc2F)C1)N1CCC[C@H]1CO` [Compound I-4, (S)—N-((1R,3S)-3-((2-(5-chloro-1H-pyrazolo[3,4-b]pyridin-3-yl)-5-fluoropyrimidin-4-yl)amino)cyclohexyl)-2-(hydroxymethyl)pyrrolidine-1-carboxamide] was tested. Which EC50 [1] did it give?
A: Its EC50 is under 3.3 µM.

Q: And the IC50 [2, 3]?
A: The IC50 was under 3.3 µM.

Q: With `COC1CCN(C(=O)N[C@@H]2CCC[C@H](Nc3nc(-c4n[nH]c5ncc(Cl)cc45)ncc3F)C2)C1` (stereo partly drawn) [Compound I-5, N-((1R,3S)-3-((2-(5-chloro-1H-pyrazolo[3,4-b]pyridin-3-yl)-5-fluoropyrimidin-4-yl)amino)cyclohexyl)-3-methoxypyrrolidine-1-carboxamide] as the compound, how does the EC50 [1] read?
A: Its EC50 is under 3.3 µM.

Q: And the IC50 [2, 3]?
A: The IC50 was under 3.3 µM.

Q: How did the EC50 [1] turn out when `O=C(N[C@@H]1CCC[C@H](Nc2nc(-c3n[nH]c4ncccc34)ncc2F)C1)N1CCOCC1` [Compound I-7] was run?
A: Its EC50 is under 3.3 µM.

Q: What about the IC50 [2, 3] of the same compound?
A: Its IC50 is under 3.3 µM.

Q: Which results are given for `O=C(O)[C@H]1C2CCC(CC2)[C@@H]1Nc1nc(-c2n[nH]c3ncc(Cl)cc23)ncc1F` [Compound I-9, (2S,3 S)-3-((2-(5-chloro-1H-pyrazolo[3,4-b]pyridin-3-yl)-5-fluoropyrimidin-4-yl)-amino)bicyclo[2.2.2]octane-2-carboxylic acid]?
A: EC50 [1]: < 3.3 µM; IC50 [2, 3]: < 3.3 µM

Q: For `O=C(O)[C@@H]1C2CCC(CC2)[C@H]1Nc1nc(-c2n[nH]c3ncc(Cl)cc23)ncc1F` [Compound I-10, (2R,3R)-3-((2-(5-chloro-1H-pyrazolo[3,4-b]pyridin-3-yl)-5-fluoropyrimidin-4-yl)-amino)bicyclo[2.2.2]octane-2-carboxylic acid], which EC50 [1] is on record?
A: Its EC50 is under 3.3 µM.

Q: And the IC50 [2, 3]?
A: Its IC50 is under 3.3 µM.

Q: What does the source list for `O=C(N[C@@H]1CCC[C@H](Nc2nc(-c3n[nH]c4ncccc34)ncc2F)C1)N1CCCC1` [Compound I-12, N-((1R,3S)-3-((5-fluoro-2-(1H-pyrazolo[3,4-b]pyridin-3-yl)pyrimidin-4-yl)amino)cyclohexyl)pyrrolidine-1-carboxamide]?
A: EC50 [1]: < 3.3 µM; IC50 [2, 3]: < 3.3 µM

Q: Which EC50 [1] does the source give for `C[C@H]1CCCN1C(=O)N[C@@H]1CCC[C@H](Nc2nc(-c3n[nH]c4ncccc34)ncc2F)C1` [Compound I-15, (S)—N-((1R,3S)-3-((5-fluoro-2-(1H-pyrazolo[3,4-b]pyridin-3-yl)pyrimidin-4-yl)-amino)cyclohexyl)-2-methylpyrrolidine-1-carboxamide] here?
A: Its EC50 is under 3.3 µM.

Q: And the IC50 [2, 3]?
A: Its IC50 is under 3.3 µM.

Q: How did the EC50 [1] turn out when `O=C(N[C@@H]1CCC[C@H](Nc2nc(-c3n[nH]c4ncccc34)ncc2F)C1)N1CCC(F)(F)C1` [Compound I-16, 3,3-difluoro-N-((1R,3S)-3-((5-fluoro-2-(1H-pyrazolo[3,4-b]pyridin-3-yl)pyrimidin-4-yl)amino)cyclohexyl)pyrrolidine-1-carboxamide] was run?
A: Its EC50 is under 3.3 µM.

Q: What about the IC50 [2, 3] of the same compound?
A: Its IC50 is under 3.3 µM.

Q: How did the EC50 [1] turn out when `O=C(N[C@@H]1CCC[C@H](Nc2nc(-c3n[nH]c4ncccc34)ncc2F)C1)N1CC[C@H](F)C1` [Compound I-17, (S)-3-fluoro-N-((1R,3S)-3-((5-fluoro-2-(1H-pyrazolo[3,4-b]pyridin-3-yl)pyrimidin-4-yl)amino)cyclohexyl)pyrrolidine-1-carboxamide] was run?
A: Its EC50 is under 3.3 µM.

Q: What about the IC50 [2, 3] of the same compound?
A: The IC50 was under 3.3 µM.

Q: `C[C@@H]1CCCN1C(=O)N[C@@H]1CCC[C@H](Nc2nc(-c3n[nH]c4ncccc34)ncc2F)C1` [Compound I-18, (R)—N-((1R,3S)-3-((5-fluoro-2-(1H-pyrazolo[3,4-b]pyridin-3-yl)pyrimidin-4-yl)amino)cyclohexyl)-2-methylpyrrolidine-1-carboxamide] was tested. Which EC50 [1] did it give?
A: Its EC50 is under 3.3 µM.

Q: What about the IC50 [2, 3] of the same compound?
A: The IC50 was under 3.3 µM.

Q: For `O=C(N[C@@H]1CCC[C@H](Nc2nc(-c3n[nH]c4ncccc34)ncc2F)C1)N1CC[C@@H](F)C1` [Compound I-19, (R)-3-fluoro-N-((1R,3S)-3-((5-fluoro-2-(1H-pyrazolo[3,4-b]pyridin-3-yl)pyrimidin-4-yl)amino)cyclohexyl)pyrrolidine-1-carboxamide], which EC50 [1] is on record?
A: The EC50 was under 3.3 µM.

Q: What about the IC50 [2, 3] of the same compound?
A: Its IC50 is under 3.3 µM.

Q: For `O=C(N[C@@H]1CCC[C@H](Nc2nc(-c3n[nH]c4ncccc34)ncc2F)C1)N1CCC(F)CC1` [Compound I-20], which EC50 [1] is on record?
A: The EC50 was under 3.3 µM.

Q: What about the IC50 [2, 3] of the same compound?
A: The IC50 was under 3.3 µM.

Q: For `O=C(N[C@@H]1CCC[C@H](Nc2nc(-c3n[nH]c4ncc(F)cc34)ncc2F)C1)N1CCOCC1` [Compound I-21, N-((1R,3S)-3-((5-fluoro-2-(5-fluoro-1H-pyrazolo[3,4-b]pyridin-3-yl)pyrimidin-4-yl)amino)cyclohexyl)morpholine-4-carboxamide], which EC50 [1] is on record?
A: The EC50 was under 3.3 µM.

Q: What about the IC50 [2, 3] of the same compound?
A: The IC50 was under 3.3 µM.

Q: What does the source list for `O=C(N[C@@H]1CCC[C@H](Nc2nc(-c3n[nH]c4ncccc34)ncc2F)C1)N1CCCCC1` [Compound I-22, N-((1R,3S)-3-((5-fluoro-2-(1H-pyrazolo[3,4-b]pyridin-3-yl)pyrimidin-4-yl)amino)-cyclohexyl)piperidine-1-carboxamide]?
A: EC50 [1]: < 3.3 µM; IC50 [2, 3]: < 3.3 µM

Q: How did the EC50 [1] turn out when `O=C(N[C@@H]1CCC[C@H](Nc2nc(-c3n[nH]c4ncc(F)cc34)ncc2F)C1)N1CC[C@@H](F)C1` [Compound I-23, (R)-3-fluoro-N-((1R,3S)-3-((5-fluoro-2-(5-fluoro-1H-pyrazolo[3,4-b]pyridin-3-yl)pyrimidin-4-yl)amino)cyclohexyl)pyrrolidine-1-carboxamide] was run?
A: The EC50 was under 3.3 µM.

Q: And the IC50 [2, 3]?
A: The IC50 was under 3.3 µM.
